Reference: US20160178584A1, “METHODS FOR DIAGNOSING AND ASSESSING KIDNEY DISEASE” (THE REGENTS OF THE UNIVERSITY OF CALIFORNIA, priority 2010, published 2016)

Experiments:
[1] = test system: patients with advanced and treatment-refractory focal segmental sclerosis; settings: cited from earlier work
[2] = test system: subjects with diabetic nephropathy; experiment: Pirfenidone trial: changes in plasma biomarkers of inflammation and fibrosis; type: in vivo, human; settings: for Change in IFN gamma / Change in Plasma TGF Beta / Change in TNF α / Change in YKL40 / Change in BNP / Change in FGF23 / Change in IL1 / Change in S TNF R1: over 52 weeks; for Change in IFN gamma / Change in Plasma TGF Beta / Change in TNF α / Change in YKL40: mean ± SD; for Change in BNP / Change in FGF23 / Change in IL1 / Change in S TNF R1: median and IQR
Procedure: (§1) Biomarkers were analyzed in plasma and urine from samples collected at both baseline visits and both end-of-study visits, with the two results averaged. Plasma biomarkers were measured by MesoScale Discovery (MSD) platform at the UCSD Clinical Translational Research Institute (CTRI) facility. The MSD platform uses electrochemiluminescence tags on specific antibodies that emit light when electrochemically stimulated. The specific blood biomarkers measured were interferon-y (IFNy), interleukin 1 (IL-1), tumor necrosis factor (TNF), soluble TNF receptor 1 (S TNF R1), YKL40 (also called chitinase like protein or human cartilage glycoprotein-39), brain natriuretic peptide (BNP), and TGF-beta1. Fibroblast growth factor 23 (FGF23) was measured by a C-terminal ELISA assay (Immutopics, San Clemente, Calif.). Urine biomarkers included urine TGF-beta1 (measured by Quantikine, R&D Biosystems, as previously described 29). Urine albumin was measured by nephelometry and urine creatinine was measured by the Jaffe method.
In exploratory analysis, linear regression was performed to evaluate associations between baseline eGFR as the dependent variable and each biomarker at baseline as the independent variable. Skewed variables were natural log transformed, and each biomarker was evaluated as “per SD greater” to facilitate comparisons of strengths of association. Biomarker change scores were calculated as (end-of-study value—baseline level). Analysis of variance (ANOVA) was used to determine if the change in biomarker levels differed by randomized treatment assignment. It was also whether baseline biomarker levels were associated with eGFR change using multivariable linear regression. These models were adjusted for the other biomarkers and for clinical factors that are well established markers of progressive diabetic nephropathy, including age, sex, race, SBP, DBP, baseline ACR, and baseline eGFR.

[3] = test system: subjects with diabetic nephropathy; experiment: Randomized double-blind, placebo-controlled exploratory trial of pirfenidone: eGFR change (primary endpoint); type: in vivo, human; settings: for eGFR Change, with imputation: 54 weeks, completers plus subjects who began dialysis, end-of-study eGFR imputed as 10 ml/min per 1.73 m2; for eGFR Change: over 54 weeks, 52 study completers, mean ± SD
Procedure: Pirfenidone is an orally-available anti-fibrotic agent that has shown efficacy in animal models of diabetic nephropathy and human focal segmental glomerulosclerosis. A randomized double-blind, placebo-controlled exploratory trial of pirfenidone was performed in subjects with diabetic nephropathy with elevated albuminura and reduced glomerular filtration rate (eGFR) (20-75 ml/min per 1.73 m^2). The pre-specified primary outcome was eGFR change after one year of therapy. 78 subjects were randomly allocated to placebo (n=27), pirfenidone 1200 mg/d (n=26), or pirfenidone 2400 mg/d (n=25). 52 subjects completed the study. During the course of the study, eGFR increased with pirfenidone 1200 mg/d [+3.3±8.5 ml/min per 1.73 m^2 (mean±SD)], whereas eGFR fell with placebo (−2.2±4.8 ml/min per 1.73 m^2, p<0.03 versus pirfenidone 1200 mg/d) and with pirfenidone 2400 mg/d (−1.9±6.7 ml/min per 1.73 m^2, P=0.25 versus placebo). Of the initial 77 subjects, 5 initiated hemodialysis during the study: 4 in the placebo group, 0 in the pirfenidone 1200 mg group and 1 in the pirfenidone 2400 mg group (P=0.25). Baseline serum albumin levels were statistically associated with eGFR improvement in the entire cohort (p=0.001) and in the pirfenidone 2400 group (+0.9 [95% CI 0.7 to 1.1], p=0.03).
The study protocol was approved by the institutional review boards of the participating centers and all patients provided written consent. Trial sites were Thomas Jefferson University, Philadelphia, Pa.; the Mayo Clinic, Rochester, Minn.; and the NIH Clinical Center, Bethesda, Md. At the pre-study evaluation, the potential study candidates provided a medical history and underwent a complete physical examination, including clinical laboratory determinations and the measurement of vital signs. Entry criteria included a history of type 1 or type 2 diabetes, eGFR 20-75 ml/min/1.73 m2, microalbuminuria or overt proteinuria, blood pressure <140/90 mm Hg on an a ACEi, ARB or the combination, if tolerated. Exclusion criteria included other causes of kidney disease, history of photosensitivity rash, and liver disease. A stratified block randomization scheme was used to maximize the balance of patients with type 1 and type 2 diabetes assigned to each treatment group, using randomization blocks of size 4.
(§2) Eligible subjects were randomly assigned to receive pirfenidone 1200 mg daily, pirfenidone 2400 mg daily, or placebo for 54 weeks. Subjects received two 400 mg capsules of pirfenidone three times, one capsule of pirfenidone and one capsule of placebo three times daily), or two capsules of placebo three times daily. […] If symptoms persisted, the dose was kept at the lowest tolerable dose (but not less than 50% of original dose) if the subject desired to continue in the protocol.
(§3) The primary endpoint was eGFR change from baseline to end of study. Baseline eGFR was determined from two serum creatinine measurements within 3 weeks prior to starting study drug. End of study eGFR was determined from two serum creatinine measurements at week 52 and week 54, prior to stopping study medication. Serum creatinine was measured by the Jaffe method separately at each clinic site laboratory. eGFR was determined by the 4-variable Modification of Diet in Renal Disease Study equation 37. Secondary endpoints included the change in urine ACR and the change in urine TGF-[…]/urine creatinine.
The pre-specified primary endpoint analysis was the eGFR change, compared between each pirfenidone treatment group with placebo group using the Student t-test. […]

[4] = test system: subjects with diabetic nephropathy; experiment: Pirfenidone trial: adverse events and study non-completion; type: in vivo, human; settings: for non-completion: Aortic dilation / non-completion: Cancer / non-completion: Dialysis / non-completion: Fatigue / non-completion: Gastrointestinal symptoms / non-completion: Heart failure / non-completion: Rash / non-completion: Urinary tract infection: number of subjects (%)
Procedure: as §2
An analysis based on logistic regression models was conducted to determine whether this violates the assumption of missing completely at random (MCAR) 40. This included using baseline characteristics to predict dropout and using eGFR values at a particular visit to predict dropout at the next visit. The latter part of the logistic regression was fitted using generalized estimating equations (GEE) 41. All data analyses were conducted using R and STATA version 11.0 (College Station, Tex.)

[5] = test system: db/db mice; settings: cited from earlier work
[6] = test system: subjects with diabetic nephropathy; experiment: Urine metabolomics in subjects treated with pirfenidone; type: in vivo, human; settings: second cohort of patients enrolled in a separate trial
Description: Twenty-four hour urine was collected from both control and D-CKD subjects. A composite quantitative urine organic acid estimation was done using the Agilent 5973 […] and Mass spectrometry. Seventy-six different organic acids were looked at per sample and the results were standardized per mmol of creatinine.
Based on this study, the basis for why pirfenidone benefited some patients and not others was unclear. Despite available clinical data and protein biomarker studies there was little understanding on how to dose and prescribe this drug in a future study. Urine metabolomics was performed in subjects enrolled in this study at baseline and at 6 months after enrollment. A panel of metabolites based on a specific ratio added predictive value to the outcome on the drug. […] Similar approaches can be employed with other clinical trials to identify which patients will respond to drug, which patients will not, and identify potential new mechanisms. Additionally, metabolite profiles could predict adverse events in patients that are ongoing or will develop in the future.

[7] = test system: subjects with diabetic nephropathy; experiment: Pirfenidone trial, secondary outcomes: urine albumin/creatinine ratio and urine TGF-beta; type: in vivo, human
Procedure: as §3, §1
The pre-specified primary endpoint analysis was the eGFR change, compared between each pirfenidone treatment group with placebo group using the Student t-test. Secondary endpoints (ACR change and urine TGF-beta1 change[…]s were similarly evaluated. When one of the two visits was missing, a single observation was used. Due to missing data the assumption that the data points arose from an identical distribution (equal variance) was put in question. Therefore, in addition to the two-sample t-tests, we also performed permutation tests with 10,000 permutations of the treatment assignments, as well as an analysis of covariance (ANCOVA) 38 with iterated re-weighted least-squares (IWLS) 39 as confirmatory analyses. Data are presented as mean±SD for normally distributed variables, and medians and interquartile ranges for skewed variables.

Cc1ccc(=O)n(-c2ccccc2)c1 [pirfenidone]
share of subjects who tolerated the dose ([1]; 2400 mg/d, FSGS open label study): ⅔
reduction in the rate of estimated glomerular filtration rate (eGFR) decline ([1]; compared to the rate of decline before pirfenidone): 25%
Change in IFN gamma ([2]; 1200, n = 14): 0.1 ± 1.9 pg/mL
Change in Plasma TGF Beta ([2]; 1200, n = 14): -2 ± 26 pg/mL
Change in TNF α ([2]; 1200, n = 14): -0.8 ± 2.2 pg/mL
Change in YKL40 ([2]; 1200, n = 14): 6 ± 62 ng/mL
Change in BNP ([2]; 1200, n = 14): −22 (−114, 24) pg/ml
Change in FGF23 ([2]; 1200, n = 14): −3 (−23, 33) RU/ml
Change in IL1 ([2]; 1200, n = 14): 0.0 (−0.3, 0.4) pg/ml
Change in S TNF R1 ([2]; 1200, n = 14): −140 (−497, 148) pg/ml
Change in IFN gamma ([2]; 2400, n = 14): 0.2 ± 2.5 pg/mL
Change in Plasma TGF Beta ([2]; 2400, n = 14): 7 ± 17 pg/mL
Change in TNF α ([2]; 2400, n = 14): -0.7 ± 2.1 pg/mL
Change in YKL40 ([2]; 2400, n = 14): 30 ± 43 ng/mL
Change in BNP ([2]; 2400, n = 14): 45 (−67, 312) pg/ml
Change in FGF23 ([2]; 2400, n = 14): 13 (−6, 63) RU/ml
Change in IL1 ([2]; 2400, n = 14): 0.0 (−0.2, 0.2) pg/ml
Change in S TNF R1 ([2]; 2400, n = 14): 197 (−113, 420) pg/ml
change of inflammatory plasma biomarkers with treatment ([2]; in vivo): none changed significantly
eGFR Change, with imputation ([3]; 1200 mg): 3.3 ± 8.5 ml/min/1.73 m^2
eGFR Change ([3]; 1200 mg): 3.3 ± 8.5 ml/min/1.73 m^2
eGFR Change, with imputation ([3]; 2400 mg): −2.1 ± 6.4 ml/min/1.73 m^2
eGFR Change ([3]; 2400 mg): −1.9 ± 6.7 ml/min/1.73 m^2
subjects who initiated hemodialysis during the study ([3]; pirfenidone 1200 mg group): 0
mean inter-group difference in eGFR change versus placebo ([3]; pirfenidone 1200 mg, baseline to end-of-study): +5.5 ml/min per 1.73 m^2
difference in eGFR change versus placebo, baseline to month 6 ([3]; pirfenidone 1200 mg, post-hoc two sample t-test): 5.3 ml/min/1.73 m^2
eGFR change during the course of the study ([3]; pirfenidone 2400 mg/d, one year (54 weeks), mean±SD): −1.9±6.7 ml/min per 1.73 m^2
mean difference in eGFR change versus placebo ([3]; pirfenidone 2400 mg, baseline to end-of-study): 0.3 ml/min per 1.73 m^2
non-completion: Aortic dilation ([4]; 1200 mg (n = 26)): 1 (4%)
non-completion: Cancer ([4]; 1200 mg (n = 26)): 0 (0%)
non-completion: Dialysis ([4]; 1200 mg (n = 26)): 0 (0%)
non-completion: Fatigue ([4]; 1200 mg (n = 26)): 0 (0%)
non-completion: Gastrointestinal symptoms ([4]; 1200 mg (n = 26)): 3 (13%)
non-completion: Heart failure ([4]; 1200 mg (n = 26)): 1 (4%)
non-completion: Rash ([4]; 1200 mg (n = 26)): 1 (4%)
non-completion: Urinary tract infection ([4]; 1200 mg (n = 26)): 0 (0%)
non-completion: Aortic dilation ([4]; 2400 mg (n = 25)): 0 (0%)
non-completion: Cancer ([4]; 2400 mg (n = 25)): One subject
non-completion: Dialysis ([4]; 2400 mg (n = 25)): 1 (4%)
non-completion: Fatigue ([4]; 2400 mg (n = 25)): 3 (12%)
non-completion: Gastrointestinal symptoms ([4]; 2400 mg (n = 25)): 6 (25%)
non-completion: Heart failure ([4]; 2400 mg (n = 25)): 0 (0%)
non-completion: Rash ([4]; 2400 mg (n = 25)): 1 (4%)
non-completion: Urinary tract infection ([4]; 2400 mg (n = 25)): 1 (4%)
non-completion: Cancer ([4]; 2400 mg (n = 25), listed as Prifenidone): 1 (4%)
incidence of gastrointestinal side effects and fatigue ([4]; pirfenidone groups compared to placebo): appeared to be dose related
Non-Completers, n (%) ([4]; randomized to 1200): 9 (35%)
Non-Completers, n (%) ([4]; randomized to 2400): 11 (44%)
albuminuria ([5]; diabetic db/db mouse): without lowering albuminuria
glomerulosclerosis ([5]; oral, after the onset of established diabetic kidney disease): effective in reducing glomerulosclerosis
urine citrate with interventional treatment [6]: showed an increase
change in urine albumin/creatinine ratio (ACR) from baseline to end of study ([7]; among study groups): no significant differences
albuminuria with treatment ([7]; in vivo): did not decrease
urine TGF-beta levels, increase over 12 months ([7]; pirfenidone 1200 mg group): 0.3 pg/mg
urine TGF-beta levels, decline over 12 months ([7]; pirfenidone 2400 mg group): 0.1 pg/mg
